US8530461B2 (Boehringer Ingelheim International GmbH, priority 2011, dated 2013)

Molecular target: T1, human ACC2 (Homo sapiens, UniProt O00763)
T1 construct: made in house; host or cells: insect cells (baculoviral expression system)
Experiment: ACC2 assay, spectrophotometric 384 well assay (NADH-linked, coupled lactate dehydrogenase/pyruvate kinase)
Format: biochemical
Settings: ACC2 assay; human ACC2 construct lacking 128 N-terminal amino acids; 25° C., 340 nm, 15 minutes; read-out: IC50
Outline: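 N-terminally truncated (Δ128) human ACC2 expressed in baculovirus/insect cells; ADP formation coupled via pyruvate kinase/lactate dehydrogenase to NADH consumption, pH 7.5, 25 mM KHCO3, 1% DMSO. Reaction started with NADH, acetyl-CoA and ATP (500 uM f.c.); A340 slope over 15 min at 25° C, IC50 by four-parameter fit after subtracting no-acetyl-CoA controls.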

T1 sequence (O00763 129-2458 limits assumed): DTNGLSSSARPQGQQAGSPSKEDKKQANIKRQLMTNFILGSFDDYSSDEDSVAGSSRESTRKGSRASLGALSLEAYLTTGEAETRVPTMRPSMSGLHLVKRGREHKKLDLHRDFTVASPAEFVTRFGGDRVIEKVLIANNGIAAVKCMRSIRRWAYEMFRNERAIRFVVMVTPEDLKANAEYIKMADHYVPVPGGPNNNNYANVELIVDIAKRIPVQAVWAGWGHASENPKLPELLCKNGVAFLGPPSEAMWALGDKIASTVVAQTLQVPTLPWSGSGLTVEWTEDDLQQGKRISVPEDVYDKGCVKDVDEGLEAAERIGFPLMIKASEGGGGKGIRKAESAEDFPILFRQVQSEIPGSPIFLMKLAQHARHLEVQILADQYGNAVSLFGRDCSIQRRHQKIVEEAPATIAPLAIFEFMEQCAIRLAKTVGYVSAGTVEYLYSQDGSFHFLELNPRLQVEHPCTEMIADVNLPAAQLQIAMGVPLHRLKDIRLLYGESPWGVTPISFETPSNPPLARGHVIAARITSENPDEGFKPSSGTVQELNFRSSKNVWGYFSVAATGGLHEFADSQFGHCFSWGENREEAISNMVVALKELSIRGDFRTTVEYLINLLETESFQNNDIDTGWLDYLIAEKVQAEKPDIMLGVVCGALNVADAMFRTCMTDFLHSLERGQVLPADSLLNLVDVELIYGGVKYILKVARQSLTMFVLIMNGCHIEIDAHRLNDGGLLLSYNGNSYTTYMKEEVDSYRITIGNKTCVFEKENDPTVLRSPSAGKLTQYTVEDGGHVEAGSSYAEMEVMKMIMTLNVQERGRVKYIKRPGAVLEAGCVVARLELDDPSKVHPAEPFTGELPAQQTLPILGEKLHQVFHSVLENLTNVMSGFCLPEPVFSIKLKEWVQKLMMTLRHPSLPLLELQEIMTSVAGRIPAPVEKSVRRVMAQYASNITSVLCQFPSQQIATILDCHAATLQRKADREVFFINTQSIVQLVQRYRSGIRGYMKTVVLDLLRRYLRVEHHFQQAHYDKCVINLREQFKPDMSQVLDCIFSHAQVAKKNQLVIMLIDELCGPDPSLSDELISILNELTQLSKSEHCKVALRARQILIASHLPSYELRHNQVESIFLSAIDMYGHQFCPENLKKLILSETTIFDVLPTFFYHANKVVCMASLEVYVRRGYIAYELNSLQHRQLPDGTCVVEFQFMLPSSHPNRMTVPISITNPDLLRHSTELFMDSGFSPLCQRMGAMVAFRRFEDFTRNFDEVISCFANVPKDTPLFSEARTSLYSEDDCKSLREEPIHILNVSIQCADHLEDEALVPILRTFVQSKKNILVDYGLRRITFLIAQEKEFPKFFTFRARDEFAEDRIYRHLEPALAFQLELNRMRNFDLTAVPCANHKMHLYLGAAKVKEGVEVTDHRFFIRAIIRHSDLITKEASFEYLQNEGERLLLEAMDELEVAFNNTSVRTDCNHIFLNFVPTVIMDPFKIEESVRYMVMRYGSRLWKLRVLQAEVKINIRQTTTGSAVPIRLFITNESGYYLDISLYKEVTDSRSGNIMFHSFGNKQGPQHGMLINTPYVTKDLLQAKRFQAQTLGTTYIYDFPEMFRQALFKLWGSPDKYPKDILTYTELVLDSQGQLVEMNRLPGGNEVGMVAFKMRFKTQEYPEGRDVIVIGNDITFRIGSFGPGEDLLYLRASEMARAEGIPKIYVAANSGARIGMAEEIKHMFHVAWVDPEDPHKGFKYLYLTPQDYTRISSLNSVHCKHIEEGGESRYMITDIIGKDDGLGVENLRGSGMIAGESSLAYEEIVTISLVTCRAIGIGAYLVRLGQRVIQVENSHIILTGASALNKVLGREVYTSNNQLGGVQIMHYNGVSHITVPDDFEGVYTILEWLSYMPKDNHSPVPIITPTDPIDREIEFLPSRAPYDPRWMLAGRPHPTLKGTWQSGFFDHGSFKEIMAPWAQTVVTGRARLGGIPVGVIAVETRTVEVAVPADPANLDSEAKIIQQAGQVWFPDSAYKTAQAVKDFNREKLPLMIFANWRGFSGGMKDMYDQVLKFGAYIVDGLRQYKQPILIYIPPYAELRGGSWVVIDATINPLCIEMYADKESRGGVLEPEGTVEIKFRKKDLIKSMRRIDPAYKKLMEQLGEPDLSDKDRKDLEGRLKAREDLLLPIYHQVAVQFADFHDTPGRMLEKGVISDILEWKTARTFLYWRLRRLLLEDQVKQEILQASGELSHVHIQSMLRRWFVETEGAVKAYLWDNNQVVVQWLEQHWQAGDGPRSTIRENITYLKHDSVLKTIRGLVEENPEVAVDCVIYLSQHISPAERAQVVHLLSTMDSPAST

IC50 | Structure (SMILES)
130 nM | CCOc1cc(F)c(OC2CN(c3ccc([C@H](C)NC(=O)C4CC4)cc3)C2)c(F)c1 [Example 10.23]
2260 nM | CCOc1ccc(OC2CN(c3ccc([C@H](C)NC(=O)C4CC4)cc3)C2)c(F)c1F [Example 10.24]
3370 nM | COc1ccc(OC2CN(c3ccc([C@H](C)NC(=O)C4CC4)cc3)C2)cn1 [Example 10.25]
370 nM | CCC(C)c1ccc(OC2CN(c3ccc([C@H](C)NC(=O)C4CC4)cc3)C2)cc1 (stereo partly drawn) [Example 10.26]
170 nM | Cc1cc2cc(OC3CN(c4ccc([C@H](C)NC(=O)C5CC5)cc4)C3)ccc2o1 [Example 10.27]
2080 nM | C[C@H](NC(=O)C1CC1)c1ccc(N2CC(Oc3ccc4c(c3)OCO4)C2)cc1 [Example 10.28]
570 nM | COc1ccc(OC2CN(c3ccc([C@H](C)NC(C)=O)cc3)C2)c(Cl)c1 [Example 10.29]
1560 nM | CCOc1c(F)cc(OC2CN(c3ccc([C@H](C)NC(=O)C4CC4)cc3)C2)cc1F [Example 10.30]
300 nM | CCOc1c(F)cc(OC2CN(c3ccc([C@H](C)NC(C)=O)cc3)C2)cc1F [Example 10.31]
730 nM | COc1ccc(OC2CN(c3ccc([C@H](C)NC(C)=O)cc3)C2)cn1 [Example 10.32]
80 nM | CC(=O)N[C@@H](C)c1ccc(N2CC(Oc3ccnc(OCC4CC4)c3)C2)cc1 [Example 11.1, (S)—N-(1-{4-[3-(2-Cyclopropylmethoxy-pyridin-4-yloxy)-azetidin-1-yl]-phenyl}-ethyl)-acetamide]
270 nM | CC(=O)N[C@@H](C)c1ccc(N2CC(Oc3ccnc(O[C@@H]4CCOC4)c3)C2)cc1 [Example 11.2]
60 nM | CC(=O)N[C@@H](C)c1ccc(N2CC(Oc3ccnc(OCC(C)C)c3)C2)cc1 [Example 11.3]
100 nM | CC(=O)N[C@@H](C)c1ccc(N2CC(Oc3ccnc(OCC4CC4(F)F)c3)C2)cc1 (stereo partly drawn) [Example 11.5]
150 nM | CC(=O)NC(C)c1ccc(N2CC(Oc3ccnc(OCC(F)F)c3)C2)cc1 (stereo not drawn) [Example 11.6]
230 nM | CC(C)COc1cc(OC2CN(c3ccc(C(C)NC(=O)C4CC4)cc3)C2)ccn1 (stereo not drawn) [Example 11.7]
810 nM | CC(=O)N[C@@H](C)c1ccc(N2CC(Oc3cccc(N(C)CC(C)(C)O)n3)C2)cc1 [Example 12.1, (S)—N-{1-[4-(3-{6-[(2-Hydroxy-2-methyl-propyl)-methyl-amino]-pyridin-2-yloxy}-azetidin-1-yl)-phenyl]ethyl}-acetamide]
1380 nM | CC(=O)N[C@@H](C)c1ccc(N2CC(Oc3cccc(OCC4CC4)n3)C2)cc1 [Example 12.2]
730 nM | CCCOc1cccc(OC2CN(c3ccc([C@H](C)NC(C)=O)cc3)C2)n1 [Example 12.3]
220 nM | CC(=O)N[C@@H](C)c1ccc(N2CC(Oc3cccc(N4CCC(C)CC4)n3)C2)cc1 [Example 12.4]
530 nM | CC(=O)N[C@@H](C)c1ccc(N2CC(Oc3cccc(C)n3)C2)cc1 [Example 12.5]

IC50 | Structure (SMILES)
90 nM | CC(=O)N[C@@H](C)c1ccc(N2CC(Oc3cccc(N(C)C)n3)C2)cc1 [Example 12.6]
310 nM | CC(=O)N[C@@H](C)c1ccc(N2CC(Oc3cccc(OC4CCC4)n3)C2)cc1 [Example 12.7]
1750 nM | CC(=O)N[C@@H](C)c1ccc(N2CC(Oc3cccc(OC4CCOC4)n3)C2)cc1 (stereo partly drawn) [Example 12.8]
490 nM | CC(=O)N[C@@H](C)c1ccc(N2CC(Oc3cccc(OC(C)C)n3)C2)cc1 [Example 12.9]
450 nM | CC(=O)N[C@@H](C)c1ccc(N2CC(Oc3cccc(C4CC4)n3)C2)cc1 [Example 12.10]
330 nM | CCc1cccc(OC2CN(c3ccc([C@H](C)NC(C)=O)cc3)C2)n1 [Example 12.11]
100 nM | CC(=O)N[C@@H](C)c1ccc(N2CC(Oc3cccc(C(F)F)n3)C2)cc1 [Example 12.12]
180 nM | CC(=O)N[C@@H](C)c1ccc(N2CC(Oc3cccc(C4CCCC4)n3)C2)cc1 [Example 12.13]
220 nM | CC(=O)N[C@@H](C)c1ccc(N2CC(Oc3cccc(C4CCC4)n3)C2)cc1 [Example 12.14]
830 nM | CC(=O)N[C@@H](C)c1ccc(N2CC(Oc3cccc(N4CCOCC4)n3)C2)cc1 [Example 12.15]
380 nM | CCOc1cccc(OC2CN(c3ccc([C@H](C)NC(C)=O)cc3)C2)n1 [Example 12.16]
50 nM | CC(=O)N[C@@H](C)c1ccc(N2CC(Oc3cccc(C(C)(C)C)n3)C2)cc1 [Example 12.17]
650 nM | CC(=O)N[C@@H](C)c1ccc(N2CC(Oc3cccc(OCC4CC4(F)F)n3)C2)cc1 (stereo partly drawn) [Example 12.18]
230 nM | CC(=O)N[C@@H](C)c1ccc(N2CC(Oc3cccc(C(C)C)n3)C2)cc1 [Example 12.19]
350 nM | CC(=O)N[C@@H](C)c1ccc(N2CC(Oc3ccnc(N4CCOCC4)n3)C2)cc1 [Example 13.1, (S)—N-(1-{4-[3-(2-Morpholin-4-yl-pyrimidin-4-yloxy)-azetidin-1-yl]-phenyl}-ethyl)-acetamide]
60 nM | CC(=O)N[C@@H](C)c1ccc(N2CC(Oc3ccnc(N4CCCC4)n3)C2)cc1 [Example 13.2, (S)—N-(1-{4-[3-(2-Pyrrolidin-1-yl-pyrimidin-4-yloxy)-azetidin-1-yl]-phenyl}-ethyl)-acetamide]
380 nM | COc1cccc(OC2CN(c3ccc([C@H](C)NC(C)=O)cc3)C2)n1 [Example 14.1, (S)—N-(1-{4-[3-(6-Methoxy-pyridin-2-yloxy)-azetidin-1-yl]-phenyl}-ethyl)-acetamide]
60 nM | CC(=O)N[C@@H](C)c1ccc(N2CC(Oc3cccc(C(F)(F)F)n3)C2)cc1 [Example 14.2]
980 nM | CC(=O)N[C@@H](C)c1ccc(N2CC(Oc3ccnc(C)n3)C2)cc1 [Example 14.3, (S)—N-(1-{4-[3-(2-Methyl-pyrimidin-4-yloxy)-azetidin-1-yl]-phenyl}-ethyl)-acetamide]
910 nM | CC(=O)NC(C)(C)c1ccc(N2CC(Oc3ccc(OCC4CC4)cc3)C2)cc1 [Example 15.1, N-(1-{4-[3-(4-Cyclopropylmethoxy-phenoxy)-azetidin-1-yl]-phenyl}-1-methyl-ethyl)-acetamide]
130 nM | COCCOc1ccc(OC2CN(c3ccc([C@H](C)NC(=O)c4sc(NC(C)=O)nc4C)cc3)C2)cc1 [Example 16.1, (S)-2-Acetylamino-4-methyl-thiazole-5-carboxylic acid [1-(4-{3-[4-(2-methoxy-ethoxy)-phenoxy]-azetidin-1-yl}-phenyl)-ethyl]-amide]
